Results reported in PMC9120017, “Inhibition mechanism of the chloride channel TMEM16A by the pore blocker 1PBC” (Nature Communications, 2022).
Like-named read-outs stand apart in the source and are kept apart here.

Molecular target: T1, mouse TMEM16A mutant V599A (Mus musculus, UniProt Q8BHY3, V599A)
T1 construct: expressed in transfected cells; host or cells: HEK293T
T1 sequence (Q8BHY3 1-960 V599A): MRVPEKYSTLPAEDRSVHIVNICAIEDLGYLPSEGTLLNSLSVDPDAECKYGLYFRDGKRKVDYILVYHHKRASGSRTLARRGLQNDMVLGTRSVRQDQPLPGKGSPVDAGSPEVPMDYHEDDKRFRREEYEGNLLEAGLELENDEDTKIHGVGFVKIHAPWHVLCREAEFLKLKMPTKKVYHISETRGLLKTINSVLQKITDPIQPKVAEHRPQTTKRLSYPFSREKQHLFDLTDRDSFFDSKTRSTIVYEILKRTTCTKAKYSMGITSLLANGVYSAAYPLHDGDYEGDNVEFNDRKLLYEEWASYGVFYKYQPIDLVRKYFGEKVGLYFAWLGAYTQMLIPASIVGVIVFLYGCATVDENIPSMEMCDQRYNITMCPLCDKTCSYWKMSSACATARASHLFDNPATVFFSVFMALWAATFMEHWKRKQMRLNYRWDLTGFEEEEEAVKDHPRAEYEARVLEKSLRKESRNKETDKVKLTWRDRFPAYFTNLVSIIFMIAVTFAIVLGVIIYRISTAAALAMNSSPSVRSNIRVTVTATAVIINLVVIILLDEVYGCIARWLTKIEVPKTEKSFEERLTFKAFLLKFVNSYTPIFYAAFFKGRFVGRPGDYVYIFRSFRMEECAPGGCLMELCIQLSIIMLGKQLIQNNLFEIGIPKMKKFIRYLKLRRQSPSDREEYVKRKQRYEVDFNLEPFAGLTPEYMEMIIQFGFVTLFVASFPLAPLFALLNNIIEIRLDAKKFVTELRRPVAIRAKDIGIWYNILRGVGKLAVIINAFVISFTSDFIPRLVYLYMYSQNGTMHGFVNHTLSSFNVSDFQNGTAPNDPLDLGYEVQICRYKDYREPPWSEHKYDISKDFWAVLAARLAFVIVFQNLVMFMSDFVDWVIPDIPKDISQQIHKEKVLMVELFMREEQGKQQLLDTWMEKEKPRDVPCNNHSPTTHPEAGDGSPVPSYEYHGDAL
Assay: Inside-out patch recording of 1PBC block, mutant V599A
Format: cell-based
Conditions: for IC50: 15 µM Ca2+
Description: HEK293T cells (ATCC CRL-1573) were maintained in Dulbecco’s modified Eagle’s medium (DMEM; Sigma-Aldrich) supplemented with 10 U ml^−1 penicillin, 0.1 mg ml^−1 streptomycin (Sigma-Aldrich), 2 mM L-glutamine (Sigma-Aldrich), and 10% FBS (Sigma-Aldrich) in a humidified atmosphere containing 5% CO2 at 37 °C. HEK293S GnTI^− cells (ATCC CRL-3022) were maintained in HyClone HyCell TransFx-H medium (GE Healthcare) supplemented with 10 U ml^−1 penicillin, 0.1 mg ml^−1 streptomycin, 4 mM L-glutamine, 0.15% poloxamer 188 (Sigma-Aldrich), and 1% FBS in an atmosphere containing 5% CO2 at 185 rpm at 37 °C. The ac splice variant of mouse TMEM16A (UniProt ID: Q8BHY3), mouse TMEM16B (UniProt ID: Q8CFW1), or mouse TMEM16F (UniProt ID: Q6P9J9) bearing a 3C cleavage site, a Venus YFP, a Myc tag, and a Streptavidin-binding peptide (SBP) downstream of the open reading frame in a modified pcDNA3.1 vector (Invitrogen) were used as described previously[21],[31]. Mutations were introduced using a modified QuikChange method[58] and were verified by sequencing.
HEK293T cells were transfected with 3–4 μg DNA per 6 cm Petri dish using the calcium phosphate co-precipitation method and were used within 24–96 h after transfection. Recordings were performed on inside-out patches excised from HEK293T cells expressing the construct of interest. Patch pipettes were pulled from borosilicate glass capillaries (O.D. 1.5 mm, I.D. 0.86 mm, Sutter Instrument) and were fire-polished with a microforge (Narishige) before use. Pipette resistance was typically 3–8 MΩ when filled with the recording solutions detailed below. Seal resistance was typically 4 GΩ or higher. Voltage-clamp recordings were made using Axopatch 200B, Digidata 1550, and Clampex 10.7 (Molecular Devices). Analog signals were filtered with the in-built 4-pole Bessel filter at 10 kHz and were digitized at 20 kHz. Solution exchange was achieved using a gravity-fed system through a theta glass pipette mounted on an ultra-fast piezo-driven stepper (Siskiyou). […] All recordings were performed at 20 °C.
A symmetrical ionic condition was used throughout. Stock solution with Ca^2+-EGTA contained 150 mM NaCl, 5.99 mM Ca(OH)2, 5 mM EGTA, and 10 mM HEPES at pH 7.40. Stock solution with EGTA contained 150 mM NaCl, 5 mM EGTA, and 10 mM HEPES at pH 7.40. Free Ca^2+ concentrations were adjusted by mixing the stock solutions at the required ratios calculated using the WEBMAXC program (http://web.stanford.edu/~cpatton/webmaxcS.htm). Patch pipettes were filled with the stock solution with Ca^2+-EGTA, which has a free Ca^2+ concentration of 1 mM. 1PBC (ChemBridge) stock was reconstituted in anhydrous DMSO (Sigma-Aldrich) at 100 mM and stored at −20 °C. Working solutions with 1PBC were prepared by serial dilution. Unless otherwise stated, experiments were performed at a saturating Ca^2+ concentration as shown in Supplementary Table 1 and the primary data were corrected for current rundown as described previously[21],[25].
Concentration-response relations, obtained from the ratio of the I-V plots before and after the application of the blocker, were fitted to the Hill equation,1 I/Imax=1/1+IC50/[blocker]^h where I/Imax is the normalized current responses, IC50 defines the concentration at which inhibition is at its half-maximum, and h is the Hill coefficient.

## N#Cc1c(C(F)(F)F)cc(O)n2c1nc1ccccc12 [1PBC]
0 mV
  IC50: 69.5 µM
0 mV, 1PBC conc 3, read-out: relative current in 1PBC (avr)
  remaining activity at 3 µM: 93.5%
0 mV, 1PBC conc 10, read-out: relative current in 1PBC (avr)
  remaining activity at 10 µM: 87.7%
0 mV, 1PBC conc 30, read-out: relative current in 1PBC (avr)
  remaining activity at 30 µM: 72%
0 mV, 1PBC conc 100, read-out: relative current in 1PBC (avr)
  remaining activity at 100 µM: 39.4%
3 µM 1PBC, +80 mV, saturating Ca2+ (15 µM), read-out: I/Imax
  remaining activity at 3 µM: 93.3%
3 µM 1PBC, -80 mV, saturating Ca2+ (15 µM), read-out: I/Imax
  remaining activity at 3 µM: 94.9%
10 µM 1PBC, +80 mV, saturating Ca2+ (15 µM), read-out: I/Imax
  remaining activity at 10 µM: 84%
10 µM 1PBC, -80 mV, saturating Ca2+ (15 µM), read-out: I/Imax
  remaining activity at 10 µM: 91.7%
30 µM 1PBC, +80 mV, saturating Ca2+ (15 µM), read-out: I/Imax
  remaining activity at 30 µM: 62.6%
30 µM 1PBC, -80 mV, saturating Ca2+ (15 µM), read-out: I/Imax
  remaining activity at 30 µM: 78.1%
100 µM 1PBC, +80 mV, saturating Ca2+ (15 µM), read-out: I/Imax
  remaining activity at 100 µM: 27.8%
100 µM 1PBC, -80 mV, saturating Ca2+ (15 µM), read-out: I/Imax
  remaining activity at 100 µM: 50.8%
20 mV
  IC50: 61.3 µM
20 mV, 1PBC conc 3, read-out: relative current in 1PBC (avr)
  remaining activity at 3 µM: 93.3%
20 mV, 1PBC conc 10, read-out: relative current in 1PBC (avr)
  remaining activity at 10 µM: 86.6%
20 mV, 1PBC conc 30, read-out: relative current in 1PBC (avr)
  remaining activity at 30 µM: 69.3%
20 mV, 1PBC conc 100, read-out: relative current in 1PBC (avr)
  remaining activity at 100 µM: 36%
40 mV
  IC50: 55.5 µM
40 mV, 1PBC conc 3, read-out: relative current in 1PBC (avr)
  remaining activity at 3 µM: 93.6%
40 mV, 1PBC conc 10, read-out: relative current in 1PBC (avr)
  remaining activity at 10 µM: 86.2%
40 mV, 1PBC conc 30, read-out: relative current in 1PBC (avr)
  remaining activity at 30 µM: 67.1%
40 mV, 1PBC conc 100, read-out: relative current in 1PBC (avr)
  remaining activity at 100 µM: 32.9%
60 mV
  IC50: 48.9 µM
60 mV, 1PBC conc 3, read-out: relative current in 1PBC (avr)
  remaining activity at 3 µM: 92.4%
60 mV, 1PBC conc 10, read-out: relative current in 1PBC (avr)
  remaining activity at 10 µM: 84.6%
60 mV, 1PBC conc 30, read-out: relative current in 1PBC (avr)
  remaining activity at 30 µM: 64.2%
60 mV, 1PBC conc 100, read-out: relative current in 1PBC (avr)
  remaining activity at 100 µM: 30%
80 mV
  log-fold IC50 (change of mutant vs WT): 1.35
  IC50: 45.8 µM
80 mV, 1PBC conc 3, read-out: relative current in 1PBC (avr)
  remaining activity at 3 µM: 93.3%
80 mV, 1PBC conc 10, read-out: relative current in 1PBC (avr)
  remaining activity at 10 µM: 84%
80 mV, 1PBC conc 30, read-out: relative current in 1PBC (avr)
  remaining activity at 30 µM: 62.6%
80 mV, 1PBC conc 100, read-out: relative current in 1PBC (avr)
  remaining activity at 100 µM: 27.8%
100 mV
  IC50: 45 µM
100 mV, 1PBC conc 3, read-out: relative current in 1PBC (avr)
  remaining activity at 3 µM: 94.2%
100 mV, 1PBC conc 10, read-out: relative current in 1PBC (avr)
  remaining activity at 10 µM: 83.7%
100 mV, 1PBC conc 30, read-out: relative current in 1PBC (avr)
  remaining activity at 30 µM: 62.5%
100 mV, 1PBC conc 100, read-out: relative current in 1PBC (avr)
  remaining activity at 100 µM: 26.8%
120 mV
  IC50: 45.1 µM
120 mV, 1PBC conc 3, read-out: relative current in 1PBC (avr)
  remaining activity at 3 µM: 95.5%
120 mV, 1PBC conc 10, read-out: relative current in 1PBC (avr)
  remaining activity at 10 µM: 83.7%
120 mV, 1PBC conc 30, read-out: relative current in 1PBC (avr)
  remaining activity at 30 µM: 62.1%
120 mV, 1PBC conc 100, read-out: relative current in 1PBC (avr)
  remaining activity at 100 µM: 27%
140 mV
  IC50: 48.5 µM
140 mV, 1PBC conc 3, read-out: relative current in 1PBC (avr)
  remaining activity at 3 µM: 97.8%
140 mV, 1PBC conc 10, read-out: relative current in 1PBC (avr)
  remaining activity at 10 µM: 86.2%
140 mV, 1PBC conc 30, read-out: relative current in 1PBC (avr)
  remaining activity at 30 µM: 63.1%
140 mV, 1PBC conc 100, read-out: relative current in 1PBC (avr)
  remaining activity at 100 µM: 28.2%
